According to PubChem BioAssay (NCI):
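These data come from cells grown in 96-well plates and exposed to compound for 48 hours at five concentrations. The concentration for 50% growth inhibition is given as GI50. TGI denotes the concentration required for complete inhibition of growth.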

Assays:
Experiment in all cases: DTP human tumour cell line panel, 48 h
EKVX NSCLC = system: EKVX NSCLC
A498 renal = system: A498 renal
SK-MEL-2 melanoma = system: SK-MEL-2 melanoma
T-47D breast = system: T-47D breast
HL-60(TB) leukemia = system: HL-60(TB) leukemia
A549 NSCLC = system: A549 NSCLC
U251 CNS = system: U251 CNS
HCT-116 colon = system: HCT-116 colon
HOP-62 NSCLC = system: HOP-62 NSCLC
OVCAR-5 ovarian = system: OVCAR-5 ovarian
MOLT-4 leukemia = system: MOLT-4 leukemia
SK-MEL-5 melanoma = system: SK-MEL-5 melanoma
KM12 colon = system: KM12 colon
RPMI-8226 leukemia = system: RPMI-8226 leukemia
MDA-MB-435 = system: MDA-MB-435
CAKI-1 renal = system: CAKI-1 renal
NCI-H522 lung = system: NCI-H522 lung
SNB-75 CNS = system: SNB-75 CNS
HCT-15 colon = system: HCT-15 colon
OVCAR-3 ovarian = system: OVCAR-3 ovarian
PC-3 prostate = system: PC-3 prostate
HS 578T breast = system: HS 578T breast
BT-549 breast = system: BT-549 breast
RXF 393 renal = system: RXF 393 renal
786-0 renal = system: 786-0 renal
OVCAR-4 ovarian = system: OVCAR-4 ovarian
UACC-257 melanoma = system: UACC-257 melanoma
DU-145 prostate = system: DU-145 prostate
HT29 colon = system: HT29 colon
HCC-2998 colon = system: HCC-2998 colon
UO-31 renal = system: UO-31 renal
CCRF-CEM leukemia = system: CCRF-CEM leukemia
SF-539 CNS = system: SF-539 CNS
SF-268 CNS = system: SF-268 CNS
SF-295 CNS = system: SF-295 CNS
ACHN renal = system: ACHN renal
SNB-19 CNS = system: SNB-19 CNS
SW-620 colon = system: SW-620 colon
NCI-H23 lung = system: NCI-H23 lung
COLO 205 colon = system: COLO 205 colon
M14 melanoma = system: M14 melanoma
K-562 leukemia = system: K-562 leukemia
LOX IMVI melanoma = system: LOX IMVI melanoma
SN12C renal = system: SN12C renal
NCI/ADR-RES ovarian = system: NCI/ADR-RES ovarian
IGROV1 ovarian = system: IGROV1 ovarian
NCI-H226 lung = system: NCI-H226 lung
SR leukemia = system: SR leukemia
SK-MEL-28 melanoma = system: SK-MEL-28 melanoma
TK-10 renal = system: TK-10 renal
MALME-3M melanoma = system: MALME-3M melanoma
MCF7 breast = system: MCF7 breast
SK-OV-3 ovarian = system: SK-OV-3 ovarian
HOP-92 NSCLC = system: HOP-92 NSCLC
OVCAR-8 ovarian = system: OVCAR-8 ovarian
MDA-MB-231 breast = system: MDA-MB-231 breast
UACC-62 melanoma = system: UACC-62 melanoma
NCI-H460 lung = system: NCI-H460 lung

COc1cc(OC)c(/C=C/C(=O)c2c(O)cc(OC)c(C3CCN(C)CC3)c2OC)c(OC)c1
GI50 (EKVX NSCLC): 1120 nM
TGI (EKVX NSCLC): 2480 nM
GI50 (A498 renal): 1600 nM
TGI (A498 renal): 3020 nM
GI50 (SK-MEL-2 melanoma): 1780 nM
TGI (SK-MEL-2 melanoma): 3240 nM
GI50 (T-47D breast): 1760 nM
TGI (T-47D breast): 3250 nM
GI50 (HL-60(TB) leukemia): 2170 nM
TGI (HL-60(TB) leukemia): 3990 nM
GI50 (A549 NSCLC): 1570 nM
TGI (A549 NSCLC): 2970 nM
GI50 (U251 CNS): 1270 nM
TGI (U251 CNS): 2520 nM
GI50 (HCT-116 colon): 414 nM
TGI (HCT-116 colon): 1650 nM
GI50 (HOP-62 NSCLC): 1730 nM
TGI (HOP-62 NSCLC): 3160 nM
GI50 (OVCAR-5 ovarian): 1480 nM
TGI (OVCAR-5 ovarian): 2840 nM
GI50 (MOLT-4 leukemia): 1630 nM
TGI (MOLT-4 leukemia): 3610 nM
GI50 (SK-MEL-5 melanoma): 1640 nM
TGI (SK-MEL-5 melanoma): 3070 nM
GI50 (KM12 colon): 1710 nM
TGI (KM12 colon): 3380 nM
GI50 (RPMI-8226 leukemia): 1110 nM
TGI (RPMI-8226 leukemia): 2830 nM
GI50 (MDA-MB-435): 1530 nM
TGI (MDA-MB-435): 2920 nM
GI50 (CAKI-1 renal): 1510 nM
TGI (CAKI-1 renal): 2930 nM
GI50 (NCI-H522 lung): 1860 nM
TGI (NCI-H522 lung): 3310 nM
GI50 (SNB-75 CNS): 1390 nM
TGI (SNB-75 CNS): 2860 nM
GI50 (HCT-15 colon): 1310 nM
TGI (HCT-15 colon): 2800 nM
GI50 (OVCAR-3 ovarian): 1810 nM
TGI (OVCAR-3 ovarian): 3320 nM
GI50 (PC-3 prostate): 1500 nM
TGI (PC-3 prostate): 2860 nM
GI50 (HS 578T breast): 1810 nM
TGI (HS 578T breast): 4290 nM
GI50 (BT-549 breast): 1430 nM
TGI (BT-549 breast): 2730 nM
GI50 (RXF 393 renal): 1760 nM
TGI (RXF 393 renal): 3300 nM
GI50 (786-0 renal): 1420 nM
TGI (786-0 renal): 2720 nM
GI50 (OVCAR-4 ovarian): 1400 nM
TGI (OVCAR-4 ovarian): 3000 nM
GI50 (UACC-257 melanoma): 1460 nM
TGI (UACC-257 melanoma): 2770 nM
GI50 (DU-145 prostate): 1750 nM
TGI (DU-145 prostate): 3250 nM
GI50 (HT29 colon): 421 nM
TGI (HT29 colon): 1500 nM
GI50 (HCC-2998 colon): 1460 nM
TGI (HCC-2998 colon): 2820 nM
GI50 (UO-31 renal): 1360 nM
TGI (UO-31 renal): 2810 nM
GI50 (CCRF-CEM leukemia): 1180 nM
TGI (CCRF-CEM leukemia): 2780 nM
GI50 (SF-539 CNS): 1690 nM
TGI (SF-539 CNS): 3120 nM
GI50 (SF-268 CNS): 1630 nM
TGI (SF-268 CNS): 3290 nM
GI50 (SF-295 CNS): 1560 nM
TGI (SF-295 CNS): 2980 nM
GI50 (ACHN renal): 1580 nM
TGI (ACHN renal): 2980 nM
GI50 (SNB-19 CNS): 1780 nM
TGI (SNB-19 CNS): 3810 nM
GI50 (SW-620 colon): 1450 nM
TGI (SW-620 colon): 3020 nM
GI50 (NCI-H23 lung): 1410 nM
TGI (NCI-H23 lung): 2780 nM
GI50 (COLO 205 colon): 1800 nM
TGI (COLO 205 colon): 3230 nM
GI50 (M14 melanoma): 1670 nM
TGI (M14 melanoma): 3050 nM

O=C1Nc2c(ccc(Cl)c2Cl)/C1=C\c1cc(C(F)(F)F)cc(C(F)(F)F)c1
GI50 (EKVX NSCLC): 1930 nM
TGI (EKVX NSCLC): 11200 nM
GI50 (A498 renal): 5590 nM
TGI (A498 renal): 13600 nM
GI50 (K-562 leukemia): 1550 nM
TGI (K-562 leukemia): 5970 nM
GI50 (SK-MEL-2 melanoma): 4110 nM
TGI (SK-MEL-2 melanoma): 10900 nM
GI50 (T-47D breast): 2500 nM
TGI (T-47D breast): 10200 nM
GI50 (LOX IMVI melanoma): 1120 nM
TGI (LOX IMVI melanoma): 3690 nM
GI50 (HL-60(TB) leukemia): 1130 nM
TGI (HL-60(TB) leukemia): 2370 nM
GI50 (SN12C renal): 3590 nM
TGI (SN12C renal): 10900 nM
GI50 (A549 NSCLC): 4810 nM
TGI (A549 NSCLC): 13000 nM
GI50 (U251 CNS): 1150 nM
TGI (U251 CNS): 3220 nM
GI50 (HCT-116 colon): 1410 nM
TGI (HCT-116 colon): 5070 nM
GI50 (NCI/ADR-RES ovarian): 6380 nM
TGI (NCI/ADR-RES ovarian): 14800 nM
GI50 (IGROV1 ovarian): 222 nM
TGI (IGROV1 ovarian): 3520 nM
GI50 (HOP-62 NSCLC): 7040 nM
TGI (HOP-62 NSCLC): 14400 nM
GI50 (OVCAR-5 ovarian): 4260 nM
TGI (OVCAR-5 ovarian): 11400 nM
GI50 (MOLT-4 leukemia): 2090 nM
TGI (MOLT-4 leukemia): 4680 nM
GI50 (SK-MEL-5 melanoma): 2670 nM
TGI (SK-MEL-5 melanoma): 8450 nM
GI50 (KM12 colon): 1420 nM
TGI (KM12 colon): 5530 nM
GI50 (RPMI-8226 leukemia): 115 nM
TGI (RPMI-8226 leukemia): 1450 nM
GI50 (NCI-H226 lung): 5480 nM
TGI (NCI-H226 lung): 13700 nM
GI50 (MDA-MB-435): 1990 nM
TGI (MDA-MB-435): 7640 nM
GI50 (SR leukemia): 392 nM
TGI (SR leukemia): 1900 nM
GI50 (CAKI-1 renal): 399 nM
TGI (CAKI-1 renal): 7850 nM
GI50 (SK-MEL-28 melanoma): 2100 nM
TGI (SK-MEL-28 melanoma): 7610 nM
GI50 (TK-10 renal): 4370 nM
TGI (TK-10 renal): 13000 nM
GI50 (NCI-H522 lung): 1540 nM
TGI (NCI-H522 lung): 6470 nM
GI50 (SNB-75 CNS): 1050 nM
TGI (SNB-75 CNS): 7480 nM
GI50 (HCT-15 colon): 1400 nM
TGI (HCT-15 colon): 6070 nM
GI50 (MALME-3M melanoma): 795 nM
TGI (MALME-3M melanoma): 8910 nM
GI50 (OVCAR-3 ovarian): 1100 nM
TGI (OVCAR-3 ovarian): 4270 nM
GI50 (MCF7 breast): 848 nM
TGI (MCF7 breast): 5640 nM
GI50 (SK-OV-3 ovarian): 9280 nM
TGI (SK-OV-3 ovarian): 27200 nM
GI50 (PC-3 prostate): 1100 nM
TGI (PC-3 prostate): 4510 nM
GI50 (HS 578T breast): 1210 nM
TGI (HS 578T breast): 3180 nM
GI50 (BT-549 breast): 6020 nM
TGI (BT-549 breast): 12500 nM
GI50 (RXF 393 renal): 1210 nM
TGI (RXF 393 renal): 2940 nM
GI50 (786-0 renal): 4290 nM
TGI (786-0 renal): 10400 nM
GI50 (OVCAR-4 ovarian): 1810 nM
TGI (OVCAR-4 ovarian): 7660 nM
GI50 (HOP-92 NSCLC): 1440 nM
TGI (HOP-92 NSCLC): 7420 nM
GI50 (UACC-257 melanoma): 6620 nM
TGI (UACC-257 melanoma): 13700 nM
GI50 (OVCAR-8 ovarian): 5750 nM
TGI (OVCAR-8 ovarian): 16000 nM
GI50 (MDA-MB-231 breast): 3740 nM
TGI (MDA-MB-231 breast): 10800 nM
GI50 (DU-145 prostate): 5570 nM
TGI (DU-145 prostate): 13500 nM
GI50 (HT29 colon): 1950 nM
TGI (HT29 colon): 6680 nM
GI50 (HCC-2998 colon): 7710 nM
TGI (HCC-2998 colon): 14900 nM
GI50 (UO-31 renal): 485 nM
TGI (UO-31 renal): 8740 nM
GI50 (CCRF-CEM leukemia): 959 nM
TGI (CCRF-CEM leukemia): 2580 nM
GI50 (SF-539 CNS): 6950 nM
TGI (SF-539 CNS): 13800 nM
GI50 (SF-268 CNS): 1860 nM
TGI (SF-268 CNS): 8510 nM
GI50 (SF-295 CNS): 1920 nM
TGI (SF-295 CNS): 8020 nM
GI50 (ACHN renal): 3180 nM
TGI (ACHN renal): 11300 nM
GI50 (UACC-62 melanoma): 1770 nM
TGI (UACC-62 melanoma): 7410 nM
GI50 (SNB-19 CNS): 5700 nM
TGI (SNB-19 CNS): 19300 nM
GI50 (SW-620 colon): 1660 nM
TGI (SW-620 colon): 6100 nM
GI50 (NCI-H23 lung): 4950 nM
TGI (NCI-H23 lung): 21600 nM
GI50 (COLO 205 colon): 1320 nM
TGI (COLO 205 colon): 4840 nM
GI50 (NCI-H460 lung): 2450 nM
TGI (NCI-H460 lung): 7680 nM
GI50 (M14 melanoma): 5060 nM
TGI (M14 melanoma): 11300 nM
